{"source": "patent US20190060249A1", "about": "(priority 2017, published 2019)", "molecular_target": "T1, ALDH3A1 (Homo sapiens, UniProt P30838)", "T1 sequence (P30838 1-453)": "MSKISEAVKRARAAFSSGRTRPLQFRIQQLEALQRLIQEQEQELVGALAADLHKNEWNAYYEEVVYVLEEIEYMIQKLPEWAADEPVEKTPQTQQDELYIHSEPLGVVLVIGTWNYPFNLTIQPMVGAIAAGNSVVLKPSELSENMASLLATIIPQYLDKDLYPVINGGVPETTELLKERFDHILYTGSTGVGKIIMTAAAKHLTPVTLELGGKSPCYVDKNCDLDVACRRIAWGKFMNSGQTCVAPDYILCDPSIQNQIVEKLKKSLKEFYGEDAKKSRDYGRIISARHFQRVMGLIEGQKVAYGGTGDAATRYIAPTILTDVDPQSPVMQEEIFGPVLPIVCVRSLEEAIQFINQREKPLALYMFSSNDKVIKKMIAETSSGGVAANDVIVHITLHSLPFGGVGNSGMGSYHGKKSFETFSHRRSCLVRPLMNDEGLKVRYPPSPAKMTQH", "assay": "ALDH enzymatic assay (spectrophotometric), recombinant ALDH3A1", "type": "biochemical", "details": "10 mM acetaldehyde, propionaldehyde, benzaldehyde, cinnamaldehyde, decanal, heptaldehyde or 200 μM 4-hydroxynonenal; 100 μM compound", "from_the_text": "To determine if ALDH3A1 activation is sufficient to protect salivary glands from radiation-induced dysfunction, a library of 135 traditional Chinese medicine extracts donated from Sun Ten Pharmaceutical Co., Taiwan, was screened using a spectroscopic enzyme activity assay and purified recombinant ALDH3A1. […] We then conducted high performance liquid chromatography (HPLC) fractionation of the extracts and nuclear magnetic resonance (NMR) characterization of the fractions. Based on the NMR fingerprint, we identified known constituents of similar fingerprints and purchased the commercially available compounds to test using the enzyme activity assay.\nALDH enzymatic assay: ALDH1A1, ALDH1A2, 2, 3A1, 3A2, 4A1, 5A1, 7A1 were measured as previously described using 5 μg/ml of recombinant protein (Chen, C. H., Cruz, L. A., and Mochly-Rosen, D. (2015) Pharmacological recruitment of aldehyde dehydrogenase 3A1 (ALDH3A1) to assist ALDH2 in acetaldehyde and ethanol metabolism in vivo. Proceedings of the National Academy of Sciences of the United States of America 112, 3074-3079). […] Assays were conducted in 50 mM NaPPi buffer (pH 7.4) in the presence of 2.5 mM NAD^+ and 10 mM substrate and measured in triplicate at 25° C. Dose response curve fits and EC50's were calculated using GraphPad Prism 7 software.\nActivity measured in presence of compound concentrations from 6 nM to 400 μM."}
{"compound": "C=CCc1ccc2c(c1)OCO2", "note": "[Alda-89, safrole, reference compound]", "values": [{"measurement": "substrate specificity of increase in ALDH3A1 catalytic activity", "value": "only increase the catalytic activity of ALDH3A1 towards small aldehydes like acetaldehyde and propionaldehyde but not aromatic or long-chain aldehydes"}]}
